Reference: PubChem BioAssay (NCI)
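Results reflect a 48-hour exposure of cells in 96-well plates to compound at five concentrations. At the GI50, growth is halved. TGI: concentration producing complete growth inhibition.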

What was measured:
Test in all cases: NCI tumour cell line growth inhibition, 48 h
[1] = system: LOX IMVI melanoma
[2] = system: NCI-H226 lung
[3] = system: SNB-75 CNS
[4] = system: HOP-92 NSCLC
[5] = system: BT-549 breast
[6] = system: SF-268 CNS
[7] = system: MALME-3M melanoma
[8] = system: OVCAR-4 ovarian
[9] = system: HCT-15 colon
[10] = system: HOP-62 NSCLC
[11] = system: M14 melanoma
[12] = system: A498 renal
[13] = system: SF-539 CNS
[14] = system: UACC-62 melanoma
[15] = system: CCRF-CEM leukemia
[16] = system: PC-3 prostate
[17] = system: SN12C renal
[18] = system: SR leukemia
[19] = system: 786-0 renal
[20] = system: OVCAR-5 ovarian
[21] = system: U251 CNS
[22] = system: A549 NSCLC
[23] = system: SNB-19 CNS
[24] = system: MDA-MB-231 breast
[25] = system: HS 578T breast
[26] = system: OVCAR-3 ovarian
[27] = system: MCF7 breast
[28] = system: NCI/ADR-RES ovarian
[29] = system: MDA-MB-435
[30] = system: HT29 colon
[31] = system: NCI-H522 lung
[32] = system: IGROV1 ovarian
[33] = system: ACHN renal
[34] = system: KM12 colon
[35] = system: K-562 leukemia
[36] = system: SK-MEL-28 melanoma
[37] = system: TK-10 renal
[38] = system: DU-145 prostate
[39] = system: NCI-H23 lung
[40] = system: SK-MEL-2 melanoma
[41] = system: EKVX NSCLC
[42] = system: T-47D breast
[43] = system: NCI-H460 lung
[44] = system: OVCAR-8 ovarian
[45] = system: CAKI-1 renal
[46] = system: SW-620 colon
[47] = system: UACC-257 melanoma
[48] = system: HCT-116 colon
[49] = system: MOLT-4 leukemia
[50] = system: RPMI-8226 leukemia
[51] = system: SF-295 CNS
[52] = system: COLO 205 colon
[53] = system: SK-MEL-5 melanoma
[54] = system: UO-31 renal
[55] = system: RXF 393 renal
[56] = system: SK-OV-3 ovarian
[57] = system: HCC-2998 colon

COc1cc2c(/C=C3\C(=O)N(C)c4ccc(O)cc43)c[nH]c2cc1C
GI50 [1]: 2.36 µM
TGI [1]: > 100 µM
GI50 [2]: 31.1 µM
TGI [2]: 75.4 µM
GI50 [3]: 5.7 µM
TGI [3]: 37 µM
GI50 [4]: 14.3 µM
TGI [4]: 34.3 µM
GI50 [5]: 1.86 µM
TGI [5]: 5.44 µM
GI50 [6]: 5.29 µM
TGI [6]: 46.4 µM
GI50 [7]: 2.44 µM
TGI [7]: 7.08 µM
GI50 [8]: 5.3 µM
TGI [8]: > 100 µM
GI50 [9]: 4.75 µM
TGI [9]: 67.8 µM
GI50 [10]: 5.98 µM
TGI [10]: 20.1 µM
GI50 [11]: 2.9 µM
TGI [11]: 8.4 µM
GI50 [12]: 20.8 µM
TGI [12]: 39.6 µM
GI50 [13]: 1.56 µM
TGI [13]: 3.74 µM
GI50 [14]: 9.73 µM
TGI [14]: 30.3 µM
GI50 [15]: 3.35 µM
TGI [15]: 35.9 µM
GI50 [16]: 3.5 µM
TGI [16]: 15.6 µM
GI50 [17]: 14.6 µM
TGI [17]: 47.2 µM
GI50 [18]: 2.88 µM
TGI [18]: > 100 µM
GI50 [19]: 3.95 µM
TGI [19]: 21 µM
GI50 [20]: 22 µM
TGI [20]: 42.5 µM
GI50 [21]: 3.35 µM
TGI [21]: 32.2 µM
GI50 [22]: 3.05 µM
TGI [22]: 18.1 µM
GI50 [23]: 6.16 µM
TGI [23]: 52.9 µM
GI50 [24]: 10.9 µM
TGI [24]: 44.5 µM
GI50 [25]: 4.33 µM
TGI [25]: > 100 µM
GI50 [26]: 3.86 µM
TGI [26]: 22.6 µM
GI50 [27]: 2.28 µM
TGI [27]: 7.35 µM
GI50 [28]: 4.17 µM
TGI [28]: 25.9 µM
GI50 [29]: 0.373 µM
TGI [29]: 1.5 µM
GI50 [30]: 3.67 µM
TGI [30]: > 100 µM
GI50 [31]: 1.47 µM
TGI [31]: 5.2 µM
GI50 [32]: 3.7 µM
TGI [32]: 22.3 µM
GI50 [33]: 3.42 µM
TGI [33]: 26.6 µM
GI50 [34]: 0.854 µM
TGI [34]: 3.52 µM
GI50 [35]: 4.67 µM
TGI [35]: > 100 µM
GI50 [36]: 2.99 µM
TGI [36]: 28.1 µM
GI50 [37]: 6.04 µM
TGI [37]: 32.6 µM
GI50 [38]: 3.56 µM
TGI [38]: 16.1 µM
GI50 [39]: 8.77 µM
TGI [39]: 38.2 µM
GI50 [40]: 2.12 µM
TGI [40]: 6.33 µM
GI50 [41]: 4.58 µM
TGI [41]: 24.1 µM
GI50 [42]: 4.05 µM
TGI [42]: 39.7 µM
GI50 [43]: 2.62 µM
TGI [43]: 7.79 µM
GI50 [44]: 3.38 µM
TGI [44]: 14.5 µM
GI50 [45]: 3.79 µM
TGI [45]: 22.2 µM
GI50 [46]: 3.83 µM
TGI [46]: 34 µM
GI50 [47]: 2.54 µM
TGI [47]: 7.01 µM
GI50 [48]: 3.16 µM
TGI [48]: 16 µM
GI50 [49]: 3.3 µM
TGI [49]: 10.6 µM
GI50 [50]: 3.54 µM
TGI [50]: 17.2 µM
GI50 [51]: 2.64 µM
TGI [51]: 17.3 µM
GI50 [52]: 3.7 µM
TGI [52]: 16.8 µM
GI50 [53]: 3.87 µM
TGI [53]: 13.2 µM
GI50 [54]: 3.07 µM
TGI [54]: 12.6 µM
GI50 [55]: 4.89 µM
TGI [55]: 45.2 µM

COc1cccc(/C(COc2ccc3c(c2)oc(=O)c2ccccc23)=N\O)c1
GI50 [2]: 27.7 µM
TGI [2]: 62 µM
GI50 [3]: 25.7 µM
TGI [3]: 76.7 µM
GI50 [4]: 71.8 µM
TGI [4]: > 100 µM
GI50 [5]: 23 µM
TGI [5]: 57.9 µM
GI50 [56]: > 100 µM
TGI [56]: > 100 µM
GI50 [6]: > 100 µM
TGI [6]: > 100 µM
GI50 [7]: 33 µM
TGI [7]: 90.1 µM
GI50 [9]: 37.2 µM
TGI [9]: > 100 µM
GI50 [10]: 37 µM
TGI [10]: > 100 µM
GI50 [11]: 32 µM
TGI [11]: > 100 µM
GI50 [12]: 30.5 µM
TGI [12]: 81.8 µM
GI50 [13]: 18.3 µM
TGI [13]: 44.3 µM
GI50 [14]: 24.8 µM
TGI [14]: 82.1 µM
GI50 [15]: 23.2 µM
TGI [15]: > 100 µM
GI50 [16]: 29.5 µM
TGI [16]: > 100 µM
GI50 [17]: 32.8 µM
TGI [17]: 96 µM
GI50 [18]: 10.3 µM
TGI [18]: > 100 µM
GI50 [19]: 16.9 µM
TGI [19]: 58 µM
GI50 [20]: > 100 µM
TGI [20]: > 100 µM
GI50 [21]: 34.4 µM
TGI [21]: > 100 µM
GI50 [22]: 16.9 µM
TGI [22]: 51.1 µM
GI50 [23]: 52 µM
TGI [23]: > 100 µM
GI50 [24]: 22.2 µM
TGI [24]: 64.5 µM
GI50 [25]: 67.1 µM
TGI [25]: > 100 µM
GI50 [26]: 45 µM
TGI [26]: > 100 µM
GI50 [27]: > 100 µM
TGI [27]: > 100 µM
GI50 [28]: 20 µM
TGI [28]: > 100 µM
GI50 [29]: 19.9 µM
TGI [29]: 52.8 µM
GI50 [30]: 29.6 µM
TGI [30]: > 100 µM
GI50 [31]: 20.6 µM
TGI [31]: 61.3 µM
GI50 [32]: 28.4 µM
TGI [32]: 58.5 µM
GI50 [33]: 26.7 µM
TGI [33]: > 100 µM
GI50 [34]: 15.1 µM
TGI [34]: 39.1 µM
GI50 [35]: 13.6 µM
TGI [35]: 85.3 µM
GI50 [36]: 84.7 µM
TGI [36]: > 100 µM
GI50 [57]: 44.1 µM
TGI [57]: > 100 µM
GI50 [37]: 33.7 µM
TGI [37]: > 100 µM
GI50 [38]: 16.9 µM
TGI [38]: 60.7 µM
GI50 [39]: 33.6 µM
TGI [39]: > 100 µM
GI50 [40]: 28.6 µM
TGI [40]: 69 µM
GI50 [41]: 12.5 µM
TGI [41]: 66.2 µM
GI50 [42]: 29.4 µM
TGI [42]: > 100 µM
GI50 [43]: > 100 µM
TGI [43]: > 100 µM
GI50 [44]: 20.8 µM
TGI [44]: 54 µM
GI50 [45]: 26.1 µM
TGI [45]: 77.2 µM
GI50 [46]: 42.5 µM
TGI [46]: > 100 µM
GI50 [47]: 25 µM
TGI [47]: 61.1 µM
GI50 [48]: 13.2 µM
TGI [48]: 33.4 µM
GI50 [49]: 6.63 µM
TGI [49]: 35 µM
GI50 [50]: 30.3 µM
TGI [50]: > 100 µM
GI50 [51]: 33.3 µM
TGI [51]: > 100 µM
GI50 [52]: 25.8 µM
TGI [52]: 75.9 µM
GI50 [53]: 17.1 µM
TGI [53]: 35.7 µM
GI50 [54]: 17.3 µM
TGI [54]: 34.3 µM
GI50 [55]: 18.4 µM
TGI [55]: 38.3 µM
